Among the data in patent US5693815A, “Peptides” (Schering Corporation, priority 1995, dated 1997) are IC50 values, retold here.

The target in the test is HIV-1 protease (Human immunodeficiency virus type 1 group M subtype B, UniProt P04585). The test is described as follows: Inhibition of proteolytic activity of HIV-1 protease, Test 1 (method of Louis et al.). It counts as biochemical. An excerpt:
TEST 1--INHIBITION OF PROTEOLYTIC ACTIVITY OF HIV-1-PROTEASE
The ability of compounds of the invention to inhibit the proteolytic activity of HIV-1 protease can be determined by using the method of Louis, et al., Biochem. Biophys. Res. Comm. 159:87-94, (1989), which is herein incorporated by reference. In using the method of Louis et al., HIV Substrate III, His-Lys-Ala-Arg-Val-Leu-pNO2 Phe-Glu-Ala-Nle-Ser-NH2 purchased from Bachem Bioscience, Inc. Philadelphia, Pa. can be used in place of the nonapeptide substrate […]amide.

For `CC(C)(C)NC(=O)c1ccccc1SCC(O)C(Cc1ccccc1)NC(=O)C1CC2CCCCC2N1C(=O)OC(C)(C)C` (stereo not shown) [U, 1-[(1,1-dimethylethoxy)carbonyl]-N-[3-[[2-[[(1,1-dimethylethyl)amino]carbonyl]phenyl]thio]-2(R and/or S)-hydroxy-1(R and/or S)-(phenylmethyl)-propyl]octahydroindole-2-carboxamide], it took 38 µM to reach half-maximal inhibition (IC50).
